Data published in the NIST ThermoML archive (doi:10.1016/j.fluid.2010.01.023).
Several values for one entry are separate records, joined by “and”; a condition that tells them apart may be missing. Identical values can stand only once. Numbers after ± are expanded uncertainties.

Test: xn = mol fraction of the nth substance listed
Details: Fluid (supercritical or subcritical phases), quasistatic thermogram and barogram, x2 = 0.7393

N [ammonia] + O
Details | thermal pressure coefficient
564.69 K, Mass density=540.25 kg/m3 | 185 ± 8 kPa/K
565.22 K, Mass density=540.25 kg/m3 | 186 ± 3 kPa/K
565.31 K, Mass density=540.25 kg/m3 | 187 ± 3 kPa/K
566.19 K, Mass density=540.25 kg/m3 | 611 ± 5 kPa/K
566.98 K, Mass density=540.25 kg/m3 | 606 ± 5 kPa/K
568.48 K, Mass density=456.58 kg/m3 | 174 ± 1 kPa/K
570.03 K, Mass density=476.25 kg/m3 | 179 ± 7 kPa/K
570.81 K, Mass density=476.25 kg/m3 | 182 ± 4 kPa/K
571.02 K, Mass density=376.89 kg/m3 | 175 ± 1 kPa/K
571.35 K, Mass density=476.25 kg/m3 | 183 ± 4 kPa/K
571.99 K, Mass density=456.58 kg/m3 | 187 ± 1 kPa/K
572.95 K, Mass density=540.25 kg/m3 | 618 ± 5 kPa/K
574.99 K, Mass density=476.25 kg/m3 | 191 ± 4 kPa/K
575.79 K, Mass density=476.25 kg/m3 | 191 ± 6 kPa/K
575.93 K, Mass density=120.03 kg/m3 | 148 ± 4 kPa/K
576.8 K, Mass density=147.43 kg/m3 | 154 ± 5 kPa/K
578.55 K, Mass density=456.58 kg/m3 | 197 ± 1 kPa/K
578.75 K, Mass density=540.25 kg/m3 | 632 ± 5 kPa/K
579.5 K, Mass density=476.25 kg/m3 | 198 ± 8 kPa/K
579.85 K, Mass density=456.58 kg/m3 | 204 ± 1 kPa/K
580.18 K, Mass density=476.25 kg/m3 | 203 kPa/K and 452 kPa/K
580.65 K, Mass density=476.25 kg/m3 | 456 ± 6 kPa/K
580.9 K, Mass density=329 kg/m3 | 185 ± 6 kPa/K
581.27 K, Mass density=476.25 kg/m3 | 457 ± 3 kPa/K
581.59 K, Mass density=342.18 kg/m3 | 192 ± 1 kPa/K
581.68 K, Mass density=320.33 kg/m3 | 186 ± 6 kPa/K
581.77 K, Mass density=456.58 kg/m3 | 198 ± 8 kPa/K
582.01 K, Mass density=120.03 kg/m3 | 155 ± 5 kPa/K
582.45 K, Mass density=308.35 kg/m3 | 190 ± 6 kPa/K
582.46 K, Mass density=307.35 kg/m3 | 190 ± 6 kPa/K
582.55 K, Mass density=312.91 kg/m3 | 189 ± 6 kPa/K
582.99 K, Mass density=540.25 kg/m3 | 639 ± 3 kPa/K
583.68 K, Mass density=456.58 kg/m3 | 203 ± 9 kPa/K
583.77 K, Mass density=160.07 kg/m3 | 168 ± 5 kPa/K
584.72 K, Mass density=456.58 kg/m3 | 202 ± 7 kPa/K
584.81 K, Mass density=120.03 kg/m3 | 155 ± 5 kPa/K
584.88 K, Mass density=476.25 kg/m3 | 473 ± 3 kPa/K
584.95 K, Mass density=456.58 kg/m3 | 206 kPa/K and 410 kPa/K
585.31 K, Mass density=120.03 kg/m3 | 154 kPa/K and 128 kPa/K
585.68 K, Mass density=147.43 kg/m3 | 166 ± 5 kPa/K
586.08 K, Mass density=120.03 kg/m3 | 100 ± 4 kPa/K
586.37 K, Mass density=120.03 kg/m3 | 96 ± 3 kPa/K
587.24 K, Mass density=456.58 kg/m3 | 416 ± 2 kPa/K
589.66 K, Mass density=305.44 kg/m3 | 194 ± 6 kPa/K
590.01 K, Mass density=297.6 kg/m3 | 191 ± 6 kPa/K
590.09 K, Mass density=303.47 kg/m3 | 191 ± 6 kPa/K
590.18 K, Mass density=342.18 kg/m3 | 198 ± 1 kPa/K
590.18 K, Mass density=376.89 kg/m3 | 201 ± 1 kPa/K
590.7 K, Mass density=309.95 kg/m3 | 203 ± 6 kPa/K
591.04 K, Mass density=308.35 kg/m3 | 200 ± 6 kPa/K
591.13 K, Mass density=301.94 kg/m3 | 196 ± 6 kPa/K
591.13 K, Mass density=329 kg/m3 | 194 ± 6 kPa/K
591.32 K, Mass density=376.89 kg/m3 | 202 ± 1 kPa/K
591.47 K, Mass density=160.07 kg/m3 | 177 ± 5 kPa/K
591.47 K, Mass density=299.79 kg/m3 | 190 ± 6 kPa/K
591.47 K, Mass density=320.33 kg/m3 | 199 ± 6 kPa/K
591.73 K, Mass density=376.89 kg/m3 | 202 ± 1 kPa/K
592.08 K, Mass density=312.91 kg/m3 | 191 ± 6 kPa/K
592.42 K, Mass density=147.43 kg/m3 | 176 ± 5 kPa/K
592.68 K, Mass density=307.35 kg/m3 | 194 ± 6 kPa/K
592.94 K, Mass density=188.05 kg/m3 | 184 ± 6 kPa/K
593.2 K, Mass density=147.43 kg/m3 | 175 ± 5 kPa/K
593.54 K, Mass density=311.19 kg/m3 | 197 ± 6 kPa/K
593.89 K, Mass density=147.43 kg/m3 | 148 ± 5 kPa/K
594.06 K, Mass density=376.89 kg/m3 | 206 ± 2 kPa/K
594.14 K, Mass density=147.43 kg/m3 | 168 kPa/K and 141 kPa/K
